Results taken from paper PMC7464492, “Cisplatin Decreases ENaC Activity Contributing to Renal Salt Wasting Syndrome” (Cancers, 2020).

Target: T1, epithelial Na+ channel (mENaC; α-, β- and γ-mouse ENaC subunits) (Mus musculus, UniProt Q61180+Q9WU38+Q9WU39)
T1 construct: gene Scnn1a; α-, β- and γ-mouse ENaC subunits genetically linked to NH2-terminal eCFP, expressed in CHO cells; with β- and γ-ENaC subunits (Scnn1b, Scnn1g)
T1 sequence (Q61180 1-699): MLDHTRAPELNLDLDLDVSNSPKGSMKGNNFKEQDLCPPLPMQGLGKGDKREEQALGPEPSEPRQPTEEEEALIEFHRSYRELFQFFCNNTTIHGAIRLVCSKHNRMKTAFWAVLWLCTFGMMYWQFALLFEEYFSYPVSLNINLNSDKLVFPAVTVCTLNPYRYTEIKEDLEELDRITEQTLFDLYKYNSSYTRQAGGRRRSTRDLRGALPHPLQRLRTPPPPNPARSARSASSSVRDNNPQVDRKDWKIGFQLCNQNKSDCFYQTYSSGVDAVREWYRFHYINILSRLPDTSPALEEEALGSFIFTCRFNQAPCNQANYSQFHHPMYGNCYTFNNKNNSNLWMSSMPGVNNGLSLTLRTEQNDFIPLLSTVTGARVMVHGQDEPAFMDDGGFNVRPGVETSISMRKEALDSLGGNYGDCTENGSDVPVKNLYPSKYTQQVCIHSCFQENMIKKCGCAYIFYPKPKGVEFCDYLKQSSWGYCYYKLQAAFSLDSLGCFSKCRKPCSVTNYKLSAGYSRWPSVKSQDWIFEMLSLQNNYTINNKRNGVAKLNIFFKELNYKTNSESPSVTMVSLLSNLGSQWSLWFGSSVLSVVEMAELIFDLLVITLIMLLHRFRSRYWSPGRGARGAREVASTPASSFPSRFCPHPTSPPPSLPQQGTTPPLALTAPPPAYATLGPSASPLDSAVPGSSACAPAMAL
T1 sequence (Q9WU38 1-638): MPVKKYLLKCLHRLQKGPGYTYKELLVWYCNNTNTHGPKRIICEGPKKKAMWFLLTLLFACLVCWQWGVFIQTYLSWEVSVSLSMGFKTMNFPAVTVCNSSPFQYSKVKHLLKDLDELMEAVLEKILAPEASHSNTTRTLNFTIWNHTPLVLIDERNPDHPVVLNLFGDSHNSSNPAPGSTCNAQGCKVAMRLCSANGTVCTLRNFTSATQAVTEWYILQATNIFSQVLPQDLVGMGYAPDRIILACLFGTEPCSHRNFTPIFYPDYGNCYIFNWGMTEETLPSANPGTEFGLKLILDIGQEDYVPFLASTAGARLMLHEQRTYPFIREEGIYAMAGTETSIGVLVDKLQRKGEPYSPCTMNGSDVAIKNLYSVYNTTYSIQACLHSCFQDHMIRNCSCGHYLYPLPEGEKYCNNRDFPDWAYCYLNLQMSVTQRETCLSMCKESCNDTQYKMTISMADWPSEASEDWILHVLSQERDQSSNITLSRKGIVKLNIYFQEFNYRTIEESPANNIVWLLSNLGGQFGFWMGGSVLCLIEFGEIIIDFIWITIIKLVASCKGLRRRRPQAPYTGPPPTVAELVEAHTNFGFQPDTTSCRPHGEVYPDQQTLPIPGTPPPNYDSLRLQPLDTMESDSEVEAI
T1 sequence (Q9WU39 1-655): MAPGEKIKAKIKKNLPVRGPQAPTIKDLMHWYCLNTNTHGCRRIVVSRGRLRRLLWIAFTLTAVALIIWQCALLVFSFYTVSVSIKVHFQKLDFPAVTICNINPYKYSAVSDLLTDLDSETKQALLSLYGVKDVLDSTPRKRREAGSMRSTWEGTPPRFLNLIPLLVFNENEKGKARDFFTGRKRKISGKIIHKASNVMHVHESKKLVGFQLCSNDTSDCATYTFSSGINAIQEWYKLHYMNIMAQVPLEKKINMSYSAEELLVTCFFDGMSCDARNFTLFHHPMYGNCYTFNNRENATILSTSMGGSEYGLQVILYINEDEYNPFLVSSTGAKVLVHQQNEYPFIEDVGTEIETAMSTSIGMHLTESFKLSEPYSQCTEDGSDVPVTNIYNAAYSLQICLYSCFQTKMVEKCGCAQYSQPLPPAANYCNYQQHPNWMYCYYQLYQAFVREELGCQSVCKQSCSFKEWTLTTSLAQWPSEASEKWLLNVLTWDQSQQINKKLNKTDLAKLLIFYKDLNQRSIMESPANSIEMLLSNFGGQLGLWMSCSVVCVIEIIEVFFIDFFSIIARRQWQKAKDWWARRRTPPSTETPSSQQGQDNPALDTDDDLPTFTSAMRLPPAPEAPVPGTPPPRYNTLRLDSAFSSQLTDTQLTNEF
Test: whole-cell patch clamp dose-response and competition with amiloride in CHO cells (partial inhibitor, Emax […]); direct action inferred, secondary effects not excluded
Assay type: cell-based

## [NH2][Pt]([NH2])([Cl])[Cl] [CDDP, cis-diamminedichloroplatinum (II)]
  IC50: 1000 ± 180 nM
